Laboratory results from patent US7928098B2, “Therapeutic and/or preventive agents for a sleep disorder” (Kyowa Hakko Kirin Co., Ltd., priority 2005, dated 2011).

Compound | melting point
CCN1CCN(CC(=O)Nc2nc(-c3ccco3)c(C(=O)c3ccccn3)s2)CC1 [Compound 181, 2-(4-Ethylpiperazin-1-yl)-N-[4-(2-furyl)-5-(pyridin-2-ylcarbonyl)thiazol-2-yl]acetamide] | 142 to 144 °C
O=C(Nc1nc(-c2ccco2)c(C(=O)C2CCOCC2)s1)c1ccc2c(c1)OCO2 [Compound 401, N-[4-(2-Furyl)-5-(tetrahydropyran-4-ylcarbonyl)thiazol-2-yl]-1,3-benzodioxol-5-carboxamide] | 194 to 196 °C
O=C(Nc1nc(-c2ccco2)c(C(=O)c2ccc(=O)n(Cc3ccccc3)c2)s1)c1ccncc1 [Compound 271, N-[5-(1-Benzyl-2-oxo-1,2-dihydropyridin-5-ylcarbonyl)-4-(2-furyl)thiazol-2-yl]pyridine-4-carboxamide] | 265 to 282 °C (dec.)
CN(C)c1cccc(C(=O)Nc2nc(-c3ccco3)c(C(=O)C3CCOCC3)s2)c1 [Compound 369, 3-(Dimethylamino)-N-[4-(2-furyl)-5-(tetrahydropyran-4-ylcarbonyl)thiazol-2-yl]benzamide] | 239 to 243 °C
CC(C)C(=O)c1sc(N)nc1-c1ccco1 [Compound 299, 2-Amino-4-(2-furyl)thiazol-5-yl isopropyl ketone] | 195 to 199 °C
Cc1cc(C(=O)Nc2nc(-c3ccco3)c(C(=O)C3CCOCC3)s2)ccn1 [Compound 405, N-[4-(2-Furyl)-5-(tetrahydropyran-4-ylcarbonyl)thiazol-2-yl]-2-methylpyridine-4-carboxamide] | 169 to 173 °C
COc1ccc(C(=O)Nc2nc(-c3ccco3)c(C(=O)C3CCOCC3)s2)cc1 [Compound 368, N-[4-(2-Furyl)-5-(tetrahydropyran-4-ylcarbonyl)thiazol-2-yl]-4-methoxybenzamide] | 184 to 188 °C
CCN(CC)C(=O)C1CCCN(CC(=O)Nc2nc(-c3ccco3)c(C(=O)c3ccccn3)s2)C1.Cl (stereo not drawn) | 180 to 185 °C
CC(C)n1nc(-c2sc(NC(=O)c3ccncc3)nc2-c2ccco2)ccc1=O [Compound 39, N-[4-(2-Furyl)-5-(1-isopropyl-6-oxo-1,6-dihydropyridazin-3-yl)thiazol-2-yl]pyridine-4-carboxamide] | 190 to 194 °C
O=C(COc1ccccc1)Nc1nc(-c2ccco2)c(C(=O)C2CCOCC2)s1 [Compound 434, N-[4-(2-Furyl)-5-(tetrahydropyran-4-ylcarbonyl)thiazol-2-yl]-2-phenoxyacetamide] | 148 to 150 °C
O=C(Nc1nc(-c2ccco2)c(C(=O)c2ccn(Cc3ccccc3)c(=O)c2)s1)c1ccncc1 [Compound 278, N-[5-(1-Benzyl-2-oxo-1,2-dihydropyridin-4-ylcarbonyl)-4-(2-furyl)thiazol-2-yl]pyridine-4-carboxamide] | 288 to 291 °C
Cc1ccc(C(=O)c2sc(NC(=O)c3ccco3)nc2-c2ccco2)cn1 [Compound 222, N-[4-(2-Furyl)-5-(2-methylpyridin-5-ylcarbonyl)thiazol-2-yl]furan-2-carboxamide] | 197 to 209 °C
CCCC(=O)c1sc(NC(=O)C2CC2)nc1-c1ccco1 [Compound 292, N-[5-Butyryl-4-(2-furyl)thiazol-2-yl]cyclopropanecarboxamide] | 170 to 172 °C
COC1CCN(CC(=O)Nc2nc(-c3ccco3)c(C(=O)C3CCOCC3)s2)CC1 [Compound 450, N-[4-(2-Furyl)-5-(tetrahydropyran-4-ylcarbonyl)thiazol-2-yl]-2-(4-methoxypiperidino)acetamide] | 109 to 111 °C
O=C(Nc1nc(-c2ccco2)c(C(=O)C2CCOCC2)s1)c1ccccc1OC(F)(F)F [Compound 380, N-[4-(2-Furyl)-5-(tetrahydropyran-4-ylcarbonyl)thiazol-2-yl]-2-(trifluoromethoxy)benzamide] | 131 to 134 °C
O=C(CC1CCOCC1)Nc1nc(-c2ccco2)c(C(=O)C2CCOCC2)s1 [Compound 430, N-[4-(2-Furyl)-5-(tetrahydropyran-4-ylcarbonyl)thiazol-2-yl]-2-(tetrahydropyran-4-yl)acetamide] | 206 to 209 °C
COC1CCC(C(=O)c2sc(NC(=O)c3ccc(C#N)cc3)nc2-c2ccco2)CC1 (stereo not drawn) [Compound 348, 4-Cyano-N-[4-(2-furyl)-5-(4-methoxycyclohexylcarbonyl)-thiazol-2-yl]benzamide] | 105 to 109 °C
O=C(Nc1nc(-c2ccco2)c(C(=O)c2ccccc2)s1)c1ccnc(CN2CCOCC2)c1 [Compound 52, N-[5-Benzoyl-4-(2-furyl)thiazol-2-yl]-2-(morpholinomethyl)pyridine-4-carboxamide] | 212 to 213 °C
O=C(Nc1nc(-c2ccco2)c(C(=O)C(F)(F)F)s1)c1ccncc1 [Compound 287, N-[4-(2-Furyl)-5-(trifluoroacetyl)thiazol-2-yl]pyridine-4-carboxamide] | 268 to 270 °C
O=C(CN1CCC(O)CC1)Nc1nc(-c2ccco2)c(C(=O)C2CCOCC2)s1 [Compound 448, N-[4-(2-Furyl)-5-(tetrahydropyran-4-ylcarbonyl)thiazol-2-yl]-2-(4-hydroxypiperidino)acetamide] | 178 to 180 °C
O=C(Nc1nc(-c2ccco2)c(C(=O)C2CCOCC2)s1)c1cccnc1 [Compound 406, N-[4-(2-Furyl)-5-(tetrahydropyran-4-ylcarbonyl)thiazol-2-yl]pyridine-3-carboxamide] | 209 to 212 °C
O=C(Nc1nc(-c2ccco2)c(C(=O)C2CCOCC2)s1)c1ccc(F)cc1F [Compound 395, 2,4-Difluoro-N-[4-(2-furyl)-5-(tetrahydropyran-4-ylcarbonyl)thiazol-2-yl]benzamide] | 213 to 215 °C
O=C(c1ccccn1)c1sc(NC(=O)C2CCN(Cc3ccncc3)CC2)nc1-c1ccco1 [Compound 106, N-[4-(2-Furyl)-5-(pyridin-2-ylcarbonyl)thiazol-2-yl]-1-(pyridin-4-ylmethyl)piperidine-4-carboxamide] | 240 to 241 °C
O=C(Nc1nc(-c2ccco2)c(C(=O)C2CCOCC2)s1)c1cccc(OC(F)(F)F)c1 [Compound 381, N-[4-(2-Furyl)-5-(tetrahydropyran-4-ylcarbonyl)thiazol-2-yl]-3-(trifluoromethoxy)benzamide] | 197 to 198 °C
O=C(CN1CCC(N2CCOCC2)CC1)Nc1nc(-c2ccco2)c(C(=O)C2CCOCC2)s1 [Compound 458, N-[4-(2-Furyl)-5-(tetrahydropyran-4-ylcarbonyl)thiazol-2-yl]-2-(4-morpholinopiperidino)acetamide] | 193 to 195 °C
COc1ccc(-c2c[nH]c(-c3nc(-c4ccco4)c(C(=O)C4CCOCC4)s3)n2)cc1 [Compound 520, 4-(2-Furyl)-2-[4-(4-methoxyphenyl)imidazol-2-yl]thiazol-5-yl tetrahydropyran-4-yl ketone] | 178 to 180 °C

Other lines, results leading:

melting point | Compound
114 to 117 °C | COCCN(C)c1cc(C(=O)Nc2nc(-c3ccco3)c(C(=O)c3ccccn3)s2)ccn1 [Compound 125, N-[4-(2-Furyl)-5-(pyridin-2-ylcarbonyl)thiazol-2-yl]-2-[N-(2-methoxyethyl)-N-methylamino]pyridine-4-carboxamide]
150 to 151 °C | COCCNC(=O)Nc1nc(-c2ccco2)c(C(=O)c2ccccn2)s1 [Compound 168, N-[4-(2-Furyl)-5-(pyridin-2-ylcarbonyl)thiazol-2-yl]-N′-(2-methoxyethyl)urea]
280 to 281 °C | O=C(Nc1nc(-c2ccco2)c(C(=O)c2cccnn2)s1)c1ccncc1 [Compound 283, N-[4-(2-Furyl)-5-(pyridazine-3-ylcarbonyl)thiazol-2-yl]pyridine-4-carboxamide]
205 to 209 °C | CN(C)Cc1cc(C(=O)Nc2nc(-c3ccco3)c(C(=O)c3ccccc3)s2)ccn1 [Compound 49, N-[5-Benzoyl-4-(2-furyl)thiazol-2-yl]-2-(dimethylaminomethyl)pyridine-4-carboxamide]
280 to 285 °C | Cn1ccc(C(=O)Nc2nc(-c3ccco3)c(C(=O)c3ccccn3)s2)cc1=O [Compound 141, N-[4-(2-Furyl)-5-(pyridin-2-ylcarbonyl)thiazol-2-yl]-1-methyl-2-oxo-1,2-dihydropyridine-4-carboxamide]
201 to 202 °C | COc1ccc(C(=O)Nc2nc(-c3ccco3)c(C(=O)c3ccccn3)s2)c(OC)n1 [Compound 132, N-[4-(2-Furyl)-5-(pyridin-2-ylcarbonyl)thiazol-2-yl]-2,6-dimethoxypyridine-3-carboxamide]
245 to 248 °C | Cc1cncc(C(=O)Nc2nc(-c3ccco3)c(C(=O)c3ccccn3)s2)c1 [Compound 131, N-[4-(2-Furyl)-5-(pyridin-2-ylcarbonyl)thiazol-2-yl]-5-methylpyridine-3-carboxamide]
169 to 170 °C | COc1ccc(C(=O)Nc2nc(-c3ccco3)c(C(=O)c3ccccn3)s2)cc1OC [Compound 111, N-[4-(2-Furyl)-5-(pyridin-2-ylcarbonyl)thiazol-2-yl]-3,4-dimethoxybenzamide]
158 to 159 °C | CCOC(=O)Nc1nc(-c2ccco2)c(C(=O)c2ccccn2)s1 [Compound 158, Ethyl N-[4-(2-furyl)-5-(pyridin-2-ylcarbonyl)thiazol-2-yl]carbamate]
215 to 218 °C | O=C(CN1CCN(c2ccccn2)CC1)Nc1nc(-c2ccco2)c(C(=O)c2ccccn2)s1 [Compound 185, N-[4-(2-Furyl)-5-(pyridin-2-ylcarbonyl)thiazol-2-yl]-2-[4-(2-pyridyl)piperazin-1-yl]acetamide]
172 to 180 °C (dec.) | COc1cc(C(=O)Nc2nc(-c3ccco3)c(C(=O)c3ccccn3)s2)cc(OC)c1OC [Compound 112, N-[4-(2-Furyl)-5-(pyridin-2-ylcarbonyl)thiazol-2-yl]-3,4,5-trimethoxybenzamide]
150 to 154 °C | O=C(Nc1nc(-c2ccco2)c(C(=O)c2ccccn2)s1)c1cnc(C2CC2)nc1 [Compound 137, 2-Cyclopropyl-N-[4-(2-furyl)-5-(pyridin-2-ylcarbonyl)thiazol-2-yl]pyrimidine-5-carboxamide]
165 to 170 °C | O=C(c1ccccn1)c1sc(NC(=O)C2CCC2)nc1-c1ccco1 [Compound 101, N-[4-(2-Furyl)-5-(pyridin-2-ylcarbonyl)thiazol-2-yl]cyclobutanecarboxamide]
